In PubChem BioAssay AID1259407 (Chemical Carcinogenesis Research Information System (CCRIS), 2018):
Active and inactive are the calls of the source. The rule behind the calls is not given here.

System: CCRIS mutagenicity, Ames/micronucleus/aberration tests
Test: CCRIS mutagenicity studies

## C[C@@H]1Cc2c(Cl)cc(C(=O)NC(Cc3ccccc3)C(=O)O)c(O)c2C(=O)O1 (stereo partly specified)
End Point: IN VITRO CHROMOSOMAL ABERRATIONS, Test System: BOVINE LYMPHOCYTES, Metabolic Activation: NONE
  mutagenic call: active; positive (structural changes)
End Point: IN VIVO CHROMOSOMAL ABERRATIONS, Test System: SPLENOCYTES, Species: RAT, Strain/Sex: FISCHER 344/MALE, Route: ORAL (GAVAGE)
  mutagenic call: inactive; negative
End Point: In vivo chromosomal aberrations, Test System: Bone marrow cells, Species: Mouse, Strain/Sex: Balb/C / Male, Route: Intraperitoneal
  mutagenic call: active; positive (structural changes)
End Point: In vivo micronucleus, Test System: Bone marrow polychromatic erythrocytes, Species: Rat, Strain/Sex: Sprague-Dawley/Male, Route: Oral
  mutagenic call: active; positive. addition of inula crithmoides extract inhibited the response
Test System: AMES SALMONELLA TYPHIMURIUM, Strain/Indicator: TA97, Metabolic Activation: HAMSTER, LIVER, S-9, AROCLOR 1254 (10 OR 30%), Method: PREINCUBATION
  mutagenic call: inactive; negative
Test System: AMES SALMONELLA TYPHIMURIUM, Strain/Indicator: TA97, Metabolic Activation: HAMSTER, LIVER, S-9, AROCLOR 1254, Method: PREINCUBATION
  mutagenic call: inactive; negative
Test System: AMES SALMONELLA TYPHIMURIUM, Strain/Indicator: TA97, Metabolic Activation: NONE, Method: PREINCUBATION
  mutagenic call: inactive; negative
Test System: AMES SALMONELLA TYPHIMURIUM, Strain/Indicator: TA97, Metabolic Activation: RAT, LIVER, S-9, AROCLOR 1254 (10 OR 30%), Method: PREINCUBATION
  mutagenic call: inactive; negative
Test System: AMES SALMONELLA TYPHIMURIUM, Strain/Indicator: TA97, Metabolic Activation: RAT, LIVER, S-9, AROCLOR 1254, Method: PREINCUBATION
  mutagenic call: inactive; negative
Test System: AMES SALMONELLA TYPHIMURIUM, Strain/Indicator: TA97A, Metabolic Activation: NONE, Method: PREINCUBATION
  mutagenic call: inactive; negative
Test System: AMES SALMONELLA TYPHIMURIUM, Strain/Indicator: TA97A, Metabolic Activation: RAT LIVER S-9, Method: PREINCUBATION
  mutagenic call: inactive; negative
Test System: AMES SALMONELLA TYPHIMURIUM, Strain/Indicator: TA98, Metabolic Activation: HAMSTER, LIVER, S-9, AROCLOR 1254 (10 OR 30%), Method: PREINCUBATION
  mutagenic call: inactive; negative
Test System: AMES SALMONELLA TYPHIMURIUM, Strain/Indicator: TA98, Metabolic Activation: HAMSTER, LIVER, S-9, AROCLOR 1254, Method: PREINCUBATION
  mutagenic call: inactive; negative
Test System: AMES SALMONELLA TYPHIMURIUM, Strain/Indicator: TA98, Metabolic Activation: HUMAN HEPG2 CELL S-9, Method: PREINCUBATION
  mutagenic call: inactive; negative
Test System: AMES SALMONELLA TYPHIMURIUM, Strain/Indicator: TA98, Metabolic Activation: MOUSE KIDNEY S-9, NADP OR ARACHIDONIC ACID (10%), Method: MICROMETHOD
  mutagenic call: active; positive
Test System: AMES SALMONELLA TYPHIMURIUM, Strain/Indicator: TA98, Metabolic Activation: MOUSE LIVER S-9 (10%), Method: MICROMETHOD
  mutagenic call: inactive; negative
Test System: AMES SALMONELLA TYPHIMURIUM, Strain/Indicator: TA98, Metabolic Activation: NONE, Method: PREINCUBATION
  mutagenic call: inactive; negative
Test System: AMES SALMONELLA TYPHIMURIUM, Strain/Indicator: TA98, Metabolic Activation: NONE, Method: STANDARD PLATE
  mutagenic call: inactive; negative
Test System: AMES SALMONELLA TYPHIMURIUM, Strain/Indicator: TA98, Metabolic Activation: RAT LIVER S-9, AROCLOR 1254 (10%), Method: MICROMETHOD
  mutagenic call: inactive; negative
Test System: AMES SALMONELLA TYPHIMURIUM, Strain/Indicator: TA98, Metabolic Activation: RAT LIVER S-9, Method: PREINCUBATION
  mutagenic call: inactive; negative
Test System: AMES SALMONELLA TYPHIMURIUM, Strain/Indicator: TA98, Metabolic Activation: RAT, LIVER, S-9, AROCLOR 1254 (10 OR 30%), Method: PREINCUBATION
  mutagenic call: inactive; negative
Test System: AMES SALMONELLA TYPHIMURIUM, Strain/Indicator: TA98, Metabolic Activation: RAT, LIVER, S-9, AROCLOR 1254, Method: PREINCUBATION
  mutagenic call: inactive; negative
Test System: AMES SALMONELLA TYPHIMURIUM, Strain/Indicator: TA98, Metabolic Activation: RAT, LIVER, S-9, AROCLOR 1254, Method: STANDARD PLATE
  mutagenic call: inactive; negative
Test System: AMES SALMONELLA TYPHIMURIUM, Strain/Indicator: TA100, Metabolic Activation: HAMSTER, LIVER, S-9, AROCLOR 1254 (10 OR 30%), Method: PREINCUBATION
  mutagenic call: inactive; negative
Test System: AMES SALMONELLA TYPHIMURIUM, Strain/Indicator: TA100, Metabolic Activation: HAMSTER, LIVER, S-9, AROCLOR 1254, Method: PREINCUBATION
  mutagenic call: inactive; negative
Test System: AMES SALMONELLA TYPHIMURIUM, Strain/Indicator: TA100, Metabolic Activation: HUMAN HEPG2 CELL S-9, Method: PREINCUBATION
  mutagenic call: inactive; negative
Test System: AMES SALMONELLA TYPHIMURIUM, Strain/Indicator: TA100, Metabolic Activation: NONE, Method: STANDARD PLATE
  mutagenic call: inactive; negative
Test System: AMES SALMONELLA TYPHIMURIUM, Strain/Indicator: TA100, Metabolic Activation: RAT LIVER S-9, Method: PREINCUBATION
  mutagenic call: inactive; negative
Test System: AMES SALMONELLA TYPHIMURIUM, Strain/Indicator: TA100, Metabolic Activation: RAT, LIVER, MICROSOMES, PHENOBARBITAL, Method: STANDARD PLATE
  mutagenic call: active; positive
Test System: AMES SALMONELLA TYPHIMURIUM, Strain/Indicator: TA100, Metabolic Activation: RAT, LIVER, S-9, AROCLOR 1254 (10 OR 30%), Method: PREINCUBATION
  mutagenic call: inactive; negative
Test System: AMES SALMONELLA TYPHIMURIUM, Strain/Indicator: TA100, Metabolic Activation: RAT, LIVER, S-9, AROCLOR 1254, Method: PREINCUBATION
  mutagenic call: inactive; negative
Test System: AMES SALMONELLA TYPHIMURIUM, Strain/Indicator: TA100, Metabolic Activation: RAT, LIVER, S-9, AROCLOR 1254, Method: STANDARD PLATE
  mutagenic call: inactive; negative
Test System: AMES SALMONELLA TYPHIMURIUM, Strain/Indicator: TA100, Metabolic Activation: RAT, LIVER, S-9, PHENOBARBITAL, Method: PREINCUBATION
  mutagenic call: inactive; negative
Test System: AMES SALMONELLA TYPHIMURIUM, Strain/Indicator: TA102, Metabolic Activation: NONE, Method: PREINCUBATION
  mutagenic call: inactive; negative
Test System: AMES SALMONELLA TYPHIMURIUM, Strain/Indicator: TA102, Metabolic Activation: NONE, Method: STANDARD PLATE
  mutagenic call: inactive; negative
Test System: AMES SALMONELLA TYPHIMURIUM, Strain/Indicator: TA102, Metabolic Activation: RAT LIVER S-9, Method: PREINCUBATION
  mutagenic call: inactive; negative
